Test results published in patent US6060604A, “Pharmaceutical compounds comprising polyamines substituted with electron-affinic groups” (priority 1996, dated 2000).

Columns and labels:
[1] = in vivo; conditions: mouse, po
[2] = tested on: CHO cells; experiment: radiosensitization potency on hypoxic CHO cells at 20% survival, single X ray dose 8 Gy (Table 2); assay type: cell-based, Chinese hamster; conditions: Cricetulus griseus, CHO; hypoxic, single X ray dose of 8 Gy; read-out: drug molarity required to reduce cell survival to 20% of the untreated control value
Protocol: (§1) Cells were plated and allowed to attach on glass petri dishes for 3 h, then the media was replaced with 5 ml of Hank's balanced salt solution (HBSS) with or without drugs. To induce cell hypoxia, the dishes were placed at room temperature into sealed aluminum chambers (8 dishes/chamber). The chambers were degassed by pumping, and then back-filled with 95% N2 and 5% CO2. This procedure was repeated 4 times with 5 min holding periods under positive gas pressure between evacuations. After 1 h, when the cells were severely hypoxic, the chambers were placed in 37° C. water bath for 1 hr. For oxic treatment groups, cells were placed in 37° C. incubators for 2 h with 5 ml of HBSS (±drugs). The chambers were placed on a rotating table and exposed to an X-ray beam generated by a General Electric Maxitron 300 therapy machine operated at 250 kVp and 20 mA (HVL 20 mm Al filter; dose rate at 2 Gy/min). After irradiation, cells were rinsed with HBSS, and covered with fresh media. Cells were cultured for 7 days in a 37° C. incubator. The resulting cell colonies were stained and counted.
In the experiment shown in Table 2 hypoxic CHO cells were irradiated with a single X ray dose of 8 Gy, with or without drugs.

[3] = cited from earlier work
[4] = tested on: Chinese hamster ovary (CHO) cells; experiment: in vitro radiosensitization of hypoxic CHO cells, colony formation (Table 1); assay type: cell-based; conditions: drug dose 0.5 mM
Protocol: as §1, with “The chambers were degassed by pumping, and then back-filled with 95% N2 and 5% CO2.” left out

[5] = tested on: hypoxic CHO cells; experiment: radiosensitizing hypoxic CHO cells, drugs given 2 hours at 4° C.; assay type: cell-based, Chinese hamster
[6] = tested on: mice; conditions: reported value for metro; cited from earlier work
[7] = tested on: viral infections; cutaneous inflammation; eye disorders; conditions: cited from earlier work
[8] = in vitro toxicity on hypoxic CHO cells, colony formation; assay type: cell-based, Chinese hamster; conditions: hamster, cho cells, 10 mM, 12 hours at 37° C., read-out: reduction in colony formation
Protocol: Subsequently, hypoxic CHO cells were incubated with 0.2 mM DATM or 10 mM metro for 12 hours at 37° C.

Question: For `Cc1ncc([N+](=O)[O-])n1CCO` [metronidazole, 1-(2-hydroxyethyl)-2-methyl-5-nitroimidazole], which LD50 [1] is on record?
Answer: ~4000 mg/kg

Question: What about the IC80 [2] of the same molecule?
Answer: 10 mM

Question: What about the “toxicity at therapeutic levels” value ([3]; as radiosensitizers) of the same molecule?
Answer: highly toxic at therapeutic levels

Question: What about the photosensitization ([3]; dermatological use) of the same molecule?
Answer: photosensitizer

Question: And the Do [4]?
Answer: 3.3 Gy

Question: What about the “radiosensitizing effectiveness, 0.2 mM DATM vs 10 mM metro” value [5] of the same molecule?
Answer: equally effective

Question: And the LD50 [6]?
Answer: about 3.3 g/kg

Question: And the “treatment of cutaneous inflammation due to dermatosis such as eczema, ulcers, acne, and rosacea” value [7]?
Answer: effective

Question: And the “treatment of eye disorders such as blepharoconjunctivitis and meibomian gland dysfunctions” value [7]?
Answer: effective

Question: And the “treatment of viral infections such as measles, herpes, and viral diverticulitis” value [7]?
Answer: effective

Question: What about the cytotoxicity at 12 h, 10000 µM [8] of the same molecule?
Answer: 95%
